Measured values published in publication PMC7646200 (Xenobiotica; the fate of foreign compounds in biological …, 2020).
Entries after “also recorded” stand apart in the source; their conditions may differ. Like-named read-outs stand apart in the source and are kept apart here.

Key:
[1] = Sulfonation of 7-hydroxycoumarin derivatives by dog liver cytosol; conditions: both, Beagle, dog, liver cytosol, pH 7.4
dog liver cytosol [2] = test: as above; conditions: for Vmax: value (95 % confidence interval); for intrinsic clearance (Vmax/Km): rank among species; for intrinsic clearance relative to the highest intrinsic clearance value: dog cytosol, highest value = 1 by rat cytosol
[3] = Sulfonation of 7-hydroxycoumarin derivatives by rabbit liver cytosol; conditions: female, Dutch belted, rabbit, liver cytosol, pH 7.4
rabbit liver cytosol [4] = test: as above; conditions: rabbit liver cytosol; for Vmax: value (95 % confidence interval); for sulfonation rate: 10 μM substrate
[5] = Sulfonation of 7-hydroxycoumarin derivatives by sheep liver cytosol; conditions: female, sheep, liver cytosol, pH 7.4
sheep liver cytosol [6] = test: as above; conditions: sheep liver cytosol; for Vmax: value (95 % confidence interval)
[7] = Sulfonation of 7-hydroxycoumarin derivatives by human liver cytosol; conditions: male, human, liver cytosol, pH 7.4
human liver cytosol [8] = test: as above; conditions: human liver cytosol; value (95 % confidence interval)
mouse liver cytosol [9] = test: Sulfonation of 7-hydroxycoumarin derivatives by mouse liver cytosol; conditions: for sulfonation rate: 10 μM substrate; for Vmax: mouse liver cytosol, value (95 % confidence interval)
[10] = Sulfonation of 7-hydroxycoumarin derivatives by rat liver cytosol; conditions: male, Wistar, rat, pH 7.4
rat liver cytosol [11] = test: as above; conditions: rat liver cytosol; for sulfonation efficiency, intrinsic clearance (Vmax/Km): rank among species; for Vmax: value (95 % confidence interval)
[12] = Sulfonation of 7-hydroxycoumarin derivatives by pig liver cytosol; conditions: female, pig, liver cytosol, pH 7.4
pig liver cytosol [13] = test: as above; conditions: pig liver cytosol; value (95 % confidence interval)
dog liver cytosol [14] = conditions: for Km: pH 7.4
in vitro = conditions: male, Wistar, rat, pH 7.4
mouse liver cytosol [15] = conditions: pH 7.4
[16] = Sulfonation of 7-hydroxycoumarin derivatives by mouse liver cytosol; conditions: DBA/2N/Kuo, mouse, pH 7.4
[17] = test system: liver cytosol of human, rat, mouse, rabbit, dog, pig and sheep; format: in vitro ADME; conditions: for sulfonation rate: 10 μM substrate, compared among derivatives over all species
rabbit liver cytosol [18] = conditions: pH 7.4
pig liver cytosol [19] = conditions: pH 7.4
rat liver cytosol [20] = conditions: pH 7.4
sheep liver cytosol [21] = conditions: pH 7.4
human liver cytosol [22] = conditions: pH 7.4

SMILES | Km [1] | Vmax (dog liver cytosol [2]; dog liver cytosol) | Km [3] | Vmax (rabbit liver cytosol [4]) | Km [5] | Vmax (sheep liver cytosol [6]) | Km [7] | Vmax (human liver cytosol [8]) | sulfonation rate (mouse liver cytosol [9]; male mouse liver cytosol) | Vmax (mouse liver cytosol [9]) | Km ([10]; liver cytosol) | sulfonation efficiency, intrinsic clearance (Vmax/Km) (rat liver cytosol [11]) | Vmax (rat liver cytosol [11]) | Km [12] | Vmax (pig liver cytosol [13]) | Km (mouse liver cytosol [15]) | intrinsic clearance (Vmax/Km) (dog liver cytosol [2]; dog liver cytosol) | Km ([16]; liver cytosol) | sulfonation rate (rabbit liver cytosol [4]) | also measured
O=c1ccc2ccc(O)cc2o1 [compound 1, 7-hydroxycoumarin, reference compound] | 0.27 µM | 380 (330–440) nmol/(min * g protein) | 1.7 µM | 200 (100–310) nmol/(min * g protein) | 0.41 µM | 250 (200–310) nmol/(min * g protein) | 1.9 µM | 84 (26–140) nmol/(min * g protein) | Slow | 260 (210–320) nmol/(min * g protein) | 0.18 µM | efficiently; also recorded: highest intrinsic clearance | 410 (360–460) nmol/(min * g protein) | 4.3 µM | 65 (29–100) nmol/(min * g protein) | – | – | – | – | sulfonation rate (mouse liver cytosol [9]; female mouse liver cytosol): Slow
COc1cc2ccc(=O)oc2cc1O [compound 3, 6-methoxy-7-hydroxycoumarin] | 0.22 µM | 420 (390–450) nmol/(min * g protein) | 0.99 µM | 160 (110–220) nmol/(min * g protein) | 0.13 µM | 260 (240–290) nmol/(min * g protein) | 3.5 µM | 155 (6–300) nmol/(min * g protein) | – | No MM | – | – | 540 (510–570) nmol/(min * g protein) | 0.11 µM | 15 (10–20) nmol/(min * g protein) | no MM | – | – | – | intrinsic clearance (Vmax/Km) (dog liver cytosol [14]): highest; Km (in vitro): 0.65 µM
CCc1c(C)c2ccc(O)cc2oc1=O [compound 5, 3-ethyl-4-methyl-7-hydroxycoumarin] | 0.45 µM | 360 (260–460) nmol/(min * g protein) | 1.3 µM | 58 (21–95) nmol/(min * g protein) | 1.6 µM | 340 (220–460) nmol/(min * g protein) | 2.1 µM | 97 (76–120) nmol/(min * g protein) | Slow | 5.3 (3.8–6.8) nmol/(min * g protein) | – | – | No MM | 1.5 µM | 26 (12–40) nmol/(min * g protein) | – | highest | 0.11 µM | – | –
CCc1c(C)c2ccc(O)c(C)c2oc1=O [compound 6, 3-ethyl-4,8-dimethyl-7-hydroxycoumarin] | 0.38 µM | 630 (280–980) nmol/(min * g protein) | 1.7 µM | 280 (200–350) nmol/(min * g protein) | 0.48 µM | 280 (190–370) nmol/(min * g protein) | 0.51 µM | 99 (74–130) nmol/(min * g protein) | – | 14 (11–17) nmol/(min * g protein) | 0.99 µM | – | 130 (73–180) nmol/(min * g protein) | 1.8 µM | 46 (22–69) nmol/(min * g protein) | – | highest | 0.14 µM | – | intrinsic clearance relative to the highest intrinsic clearance value (dog liver cytosol [2]): > 70%; sulfonation rate (dog liver cytosol [2]; dog liver cytosol, 10 μM substrate): Slow
Cc1c(C)c2ccc(O)c(C)c2oc1=O [compound 7, 3,4,8-trimethyl-7-hydroxycoumarin] | 4.3 µM | 1300 (0–5200) nmol/(min * g protein) | – | No MM | 0.71 µM | 300 (250–350) nmol/(min * g protein) | 0.65 µM | 65 (54–76) nmol/(min * g protein) | Slow | 11 (6.8–14) nmol/(min * g protein) | 0.8 µM | efficiently | 440 (170–710) nmol/(min * g protein) | 2.1 µM | 59 (28–91) nmol/(min * g protein) | – | – | 0.11 µM | – | –
Cc1ccc(-c2cc3ccc(O)cc3oc2=O)cc1 [compound 8, 3-(4-methylphenyl)-7-hydroxycoumarin] | 0.17 µM | 56 (38–77) nmol/(min * g protein) | 7.3 µM | 310 (35–580) nmol/(min * g protein) | 5.3 µM | 154 (83–230) nmol/(min * g protein) | 0.27 µM | 6.5 (1.6–36) nmol/(min * g protein) | – | 26 (16–36) nmol/(min * g protein) | – | efficiently | 170 (92–260) nmol/(min * g protein) | 2.8 µM | 12 (2–22) nmol/(min * g protein) | – | – | – | Slow | sulfonation rate [17]: highest sulfonation rates; Km [10]: 0.36 µM
O=c1oc2cc(O)ccc2cc1-c1ccc(O)cc1 [compound 9, 3-(4-hydroxyphenyl)-7-hydroxycoumarin] | 0.051 µM | 88 (65–120) nmol/(min * g protein) | 0.95 µM | 45 (30–62) nmol/(min * g protein) | 1.27 µM | 41 (26–56) nmol/(min * g protein) | – | – | – | 160 (130–190) nmol/(min * g protein) | – | – | – | – | – | – | highest | – | – | intrinsic clearance relative to the highest intrinsic clearance value (dog liver cytosol [2]): > 70%; Km [16]: 0.46 µM; sulfonation rate (rat liver cytosol [11]; 10 μM substrate): Slow
CN(C)c1ccc(-c2cc3ccc(O)cc3oc2=O)cc1 [compound 12, 3-(4-dimethylaminophenyl)-7-hydroxycoumarin] | 0.44 µM | 600 (330–970) nmol/(min * g protein) | 0.67 µM | 290 (90–560) nmol/(min * g protein) | 0.89 µM | 440 (360–570) nmol/(min * g protein) | 0.39 µM | 180 (75–320) nmol/(min * g protein) | – | 230 (64–540) nmol/(min * g protein) | – | – | 520 (280–790) nmol/(min * g protein) | 2.8 µM | 210 (140–290) nmol/(min * g protein) | – | highest | – | – | sulfonation rate [17]: highest sulfonation rates; intrinsic clearance (Vmax/Km), similarity between species ([17]; compared with other 7-hydroxycoumarin derivatives): more similar between species; Km [16]: 0.49 µM; Km [10]: 0.67 µM
O=c1oc2cc(O)ccc2cc1-c1cccnc1 [compound 13, 3-(4-pyridin-3-yl)-7-hydroxycoumarin] | – | 360 (330–430) nmol/(min * g protein) | – | 120 (100–210) nmol/(min * g protein) | – | 80 (0–230) nmol/(min * g protein) | – | 59 (53–71) nmol/(min * g protein) | – | 160 (110–200) nmol/(min * g protein) | – | efficiently | – | – | 24 (17–31) nmol/(min * g protein) | 4.3 µM | – | – | Slow | Km (dog liver cytosol [14]): 3.3 µM; Km (rabbit liver cytosol [18]): 10 µM; sulfonation rate (sheep liver cytosol [6]; 10 μM substrate): Slow; Km (pig liver cytosol [19]): 4 µM; Km (rat liver cytosol [20]): 2.3 µM; Km (sheep liver cytosol [21]): 6.8 µM; Km (human liver cytosol [22]): 6.6 3.7–6.8) μM
O=c1oc2cc(O)ccc2cc1-n1cncn1 [compound 14, 3-(1H-1,2,4-tirazol-1-yl)-7-hydroxycoumarin] | – | 200 (180–220) nmol/(min * g protein) | – | 32 (25–39) nmol/(min * g protein) | – | 220 (93–350) nmol/(min * g protein) | – | 69 (55–84) nmol/(min * g protein) | – | 78 (69–88) nmol/(min * g protein) | – | efficiently | 230 (200–260) nmol/(min * g protein) | – | 39 (13–65) nmol/(min * g protein) | 4.9 µM | – | – | Slow | Km (dog liver cytosol [14]): 3.9 µM; Km (rabbit liver cytosol [18]): 2.8 µM; Km (pig liver cytosol [19]): 3 µM; Km (rat liver cytosol [20]): 1.3 µM; Km (sheep liver cytosol [21]): 12 µM; Km (human liver cytosol [22]): 4.7 µM
